# Results published in US8163804B2 (priority 2005, dated 2012).
# Read-outs that look alike come from different tables or passages of the source.
# Experiments:
# [1] = system: Green Peach Aphid (Myzus persicae); format: in vivo; conditions: 3 ppm, foliar spray on eggplant, 5 days after spraying
# [2] = system: Resistant Cotton Melon Aphid (Aphis gossypii); format: in vivo; conditions: 3 ppm, foliar spray on cucumber, 5 days after spraying
# [3] = system: Small Brown Planthopper (Laodelphax striatellus); experiment: Insecticidal test on small brown planthopper, sprayed rice seedlings, mortality after 6 days; format: in vivo; conditions: 3 ppm, sprayed rice seedlings, 6 days after treatment
# Description: Insecticidal Test on Small Brown Planthopper (Laodelphax striatellus)
# A liquid chemical which was diluted and prepared to the prescribed concentration was sprayed on rice seedlings (cultivar: koshihikari), air-dried, and then 10 three-stage insects of Laodelphax striatellus were put into a glass test tube having a diameter of 3 cm and a height of 10 cm along with the seedlings. The test tube was cotton plugged. After 6 days from the treatment, the number of surviving insects was examined and the mortality was calculated (two replications of 10 insects per plot).
# [4] = system: 2-spotted Spider Mite (Tetranychus urticae); experiment: Insecticidal test on 2-spotted spider mite, kidney bean leaf disc with eggs, hatchability of larvae after 6 days; format: in vivo; conditions: 50 ppm; 6 days after spraying
# Description: Insecticidal Test on 2-spotted Spider Mite (Tetranychus urticae)
# A plastic cup having a diameter of 8 cm was filled with water and covered by a lid with a hole having a diameter of 1 cm. Absorbent cotton was put on the top of the lid and dropped into water from the lid such that the absorbent cotton was always in a wet state due to a capillary phenomenon. A leaf disc having a diameter of 2 cm was prepared with primary leaves of kidney beans (cultivar: Green top) and placed on the aforementioned absorbent cotton. 4 adult female insects of Tetranychus urticae were inoculated thereon. Next day, the adult female insects were removed, and then the number of insect egg was examined. A liquid chemical which was prepared to the prescribed concentration was sprayed by using a vertical sprayer. After spraying, the resulting cup was allowed to stand in an isothermal chamber maintained at 25 degree centigrade. After 6 days from spraying, the number of hatched larvae that survived on the leaf disc was examined and the hatchability of larvae was calculated (two replications of one concentration per chemical).
# [5] = system: Tiger Moth (Trichoplusia ni); experiment: Insecticidal test on tiger moth, cabbage leaf dip, mortality after 6 days; format: in vivo; conditions: 0.5 ppm; 6 days after treatment
# Description: Insecticidal Test on Tiger Moth (Trichoplusia ni)
# Cut leaves of cabbages (cultivar: shiki-kaku) were immersed in a liquid chemical which was diluted and prepared to the prescribed concentration for 30 seconds, air-dried, and then put into a plastic vessel having a diameter of 9 cm. Each of 10 second-stage insects of Trichoplusia ni was inoculated and the resulting vessel was allowed to stand in an isothermal chamber maintained at 25 degree centigrade. After 6 days from the treatment, the number of surviving insects was examined and the mortality was calculated (two replications of 10 insects per plot).
# [6] = system: Common Straight Swift Butterfly (Parnara guttata); experiment: Control test on common straight swift butterfly of paddy rice, powder spray, number of insects after 20 days (Test Example 8); format: in vivo; conditions: 20 gai/10a; 20 days after spraying
# [7] = system: Rice Blast (Pyricularia oryzae); format: in vivo; conditions: in vivo
# [8] = system: Common Straight Swift Butterfly (Parnara guttata); experiment: Control test on common straight swift butterfly of paddy rice, powder spray, number of insects after 20 days (Test Example 9); format: in vivo; conditions: 20 gai/10a; 20 days after spraying
# From the text: (§1) Control Test on Common Straight Swift Butterfly (Parnara guttata) and Sheath Blight (Rhizoctonia solani) of Paddy Rice
# (§2) A powder of a prescribed amount was sprayed on rice (cultivar: koshihikari) after 70 days from the transplantation (middle of May) Leaves on which Parnara guttata was parasitic before spraying were eliminated. After 20 days from spraying, the number of insects was examined for 100 stumps in each plot. Furthermore, 7 days before spraying, Rhizoctonia solani cultured on a bran medium was inoculated into the base of the plant. After 30 days from spraying, the number of infected stumps was examined for 100 stumps in each plot and the rate of infected stumps was calculated. In the Table, gai represents the amount of active ingredients (g).
# [9] = system: Sheath Blight (Rhizoctonia solani); experiment: Control test on sheath blight of paddy rice, powder spray, rate of infected stumps after 30 days; format: in vivo; conditions: 20 gai/10a; 30 days after spraying
# From the text: as §1, §2
# [10] = system: Oriental Fruit Moth (Grapholita molesta); experiment: Control test on oriental fruit moth of pear, spray, rate of infected fruit after 40 days; format: in vivo; conditions: 50 ppm; 40 days after spraying
# Description: (§3) Control Test on Oriental Fruit Moth (Grapholita molesta) and Scab (Venturia nashicola) of Pear
# (§4) A liquid chemical which was prepared to the prescribed concentration was sufficiently sprayed on 17-year-old pears (cultivar: Hosui) (early June). After 40 days from spraying, the number of infected fruits due to Grapholita molesta was examined for all fruit in the plot, and the rate of infected fruit was calculated. Furthermore, after 14 days from spraying, infection of Venturia nashicola was examined by the degrees for optional 200 leaves in the plot and the severity index was calculated according to the following equation. Severity index=Z(number of infected leaves by the degrees×index)×100/(number of examined leaves×5)
# [11] = system: Scab (Venturia nashicola); experiment: Control test on scab of pear, spray, severity index after 14 days; format: in vivo; conditions: 50 ppm; 14 days after spraying
# Description: as §3, §4
# [12] = system: Cucumber Moth (Diaphania indica); experiment: Insecticidal test on cucumber moth, sprayed cucumber leaves, mortality; format: in vivo; conditions: 10 ppm
# Description: (§5) Insecticidal Test on Cucumber Moth (Diaphania indica) and Control Test on Powdery Mildew (Sphaerotheca fuliginea) of Cucumbers
# (§6) A liquid chemical which was prepared to the prescribed concentration was sufficiently sprayed on cucumbers (cultivar: sagami-hanpaku) cultured in a greenhouse. After 7 days from spraying, leaves were cut off and put into a plastic cup (diameter: 10 cm, height: 10 cm) along with 5 of second-stage larvae of Diaphania indica, and the mortality was examined 4 days thereafter. Furthermore, 1 day after spraying, the leaves of cucumbers which were previously arranged to be infected by pathogen were uniformly wiped with Sphaerotheca fuliginea thereon using a paintbrush for inoculation and examined after 10 days thereafter. The area occupied by lesion per leaf of cucumber was examined in accordance with the following index, and the control value was calculated from the average severity index of each plot according to the following equation (two replications).
# [13] = system: Powdery Mildew (Sphaerotheca fuliginea); experiment: Control test on powdery mildew of cucumbers, spray, control value from severity index; format: in vivo; conditions: 10 ppm
# Description: as §5, §6
# Severity Index • 0: No lesion • 1: Lesion area was not more than 5% • 2: Lesion area was from 6 to 25% • 3: Lesion area was from 26 to 50% • 4: Lesion area was not less than 51% Control Value=(1−average severity in the treated plot/average severity in the untreated plot)×100
# [14] = system: Turnip Moth (Agrotis segetum); experiment: Control test on turnip moth of cabbage, soil treatment, rate of infected stumps after 7 days; format: in vivo; conditions: 100 gai/10a; 7 days after treatment
# Description: (§7) Control Test on Turnip Moth (Agrotis segetum) and Clubroot (Plasmodiophora brassicae) of Cabbage due to Soil Treatment
# (§8) A powder in a prescribed amount was mixed to soil and cabbages (cultivar: shiki-kaku) cultured on a cell medium were planted out. After 7 days from the treatment, the number of infected stumps due to Agrotis segetum was examined and the rate of infected stumps was calculated. Furthermore, after 60 days from the treatment, stumps were picked out, and lesion formation of Plasmodiophora brassicase was examined according to the degrees of severity. The control value was calculated from the average severity index of each plot according to the following equation. In the Table, gai represents the amount of active ingredients (g).
# [15] = system: Clubroot (Plasmodiophora brassicae); experiment: Control test on clubroot of cabbage, soil treatment, control value after 60 days; format: in vivo; conditions: 100 gai/10a; 60 days after treatment
# Description: as §7, §8
# Severity Index • 0: No clubroot attached • 1: Clubroot was attached at a portion of from 1 to 25% of the whole root • 2: Clubroot was attached at a portion of from 25 to 50% of the whole root • 3: Clubroot was attached at a portion of from 50 to 75% of the whole root • 4: Clubroot was attached at a portion of from 75% or more of the whole root Control Value=(1−average severity in the treated plot/average severity in the untreated plot)×100
# [16] = system: Small Brown Planthopper (Laodelphax striatellus); experiment: Control test on small brown planthopper, nursery box application of paddy rice, number of parasitic insects after 40 and 60 days; format: in vivo; conditions: 5 gai/box
# Description: (§9) Control Test on Small Brown Planthopper (Laodelphax striatellus) and Rice Leafroller (Cnaphalocrocis medinalis) on Nursery Box Application of Paddy Rice
# (§10) Rice (cultivar: Nihonbare) cultured in a nursery box was treated with 50 g of a granule formulation per box, and then transplanted to the rice field. For the control effect against Laodelphax striatellus, the number of parasitic insects was examined for 30 stumps per plot after 40 days and 60 days from the transplantation. In addition, for the control effect against Cnaphalocrocis medinalis, the number of infected leaves was examined for 100 stumps per plot after 50 days from the transplantation, and the infected leaf rate was calculated. In the Table, gai represents the amount of active ingredients (g).
# [17] = system: Rice Leafroller (Cnaphalocrocis medinalis); experiment: Control test on rice leafroller, nursery box application of paddy rice, infected leaf rate after 50 days; format: in vivo; conditions: 5 gai/box; 50 days after transplantation
# Description: as §9, §10
# [18] = system: Rice Blast (Pyricularia oryzae); format: in vivo; conditions: in vivo; remark: listed apart in the source
# [19] = system: Rice Striped Stem Borer (Chilo suppressalis); conditions: 5 gai/box
Compound,Control rate (%) [1] [%],Control rate (%) [2] [%],Mortality (%) [3] [%],Hatchability of larvae (%) [4] [%],Mortality (%) [5] [%],Number (insects/100 stumps) [6] [insects/100 stumps],Pyricularia oryzae Control value [7],Number of insects (number/100 stumps) [8] [number/100 stumps],Rate of infected stumps (%) [9] [%],Grapholita molesta Infected fruit rate (%) [10] [%],Venturia nashicola Severity index [11],Diaphania indica Mortality (%) [12] [%],Sphaerotheca fuliginea Control value [13],Agrotis segetum Infected stump rate (%) [14] [%],Plasmodiophora brassicae Control value [15],Laodelphax striatellus Number of parasitic insects/30 stumps ([16]; 40 days) [insects/30 stumps],Laodelphax striatellus Number of parasitic insects/30 stumps ([16]; 60 days) [insects/30 stumps],Cnaphalocrocis medinalis Infected leaf rate (%) [17] [%],Pyricularia oryzae Control value [18],Chilo suppressalis Mortality (%) [19] [%]
O=C(Nc1cccc(C(=O)Nc2c(Br)cc(C(F)(C(F)(F)F)C(F)(F)F)cc2SC(F)(F)F)c1)c1ccccc1 [Compound 210],7,12,15,80,70,1,3,1,98,1.7,50.6,95,0,2.8,0,–,–,–,–,–
"Cc1cc(C(F)(C(F)(F)F)C(F)(F)F)cc(C)c1NC(=O)c1cccc(NC(=O)c2ccccc2)c1F [Compound No. 601, N-(2,6-dimethyl-4-heptafluoroisopropyl)phenyl 3-(benzoylamino)-2-fluorobenzamide]",–,–,–,–,–,1,7,2,96,2.3,53.0,95,0,2.8,0,–,–,–,–,–
Cc1cc(C(F)(C(F)(F)F)C(F)(F)F)cc(C)c1NC(=O)c1cccc(N(C)C(=O)c2ccccc2)c1F [Compound 1208],20,18,10,78,75,1,5,1,99,1.9,52.4,95,0,2.8,9,–,–,–,–,–
Cc1cc(C(F)(C(F)(F)F)C(F)(F)F)cc(C)c1NC(=O)c1cccc(N(C)C(=O)c2cccnc2Cl)c1F [Compound 1245],12,15,5,85,70,2,0,2,98,2.8,51.6,90,0,2.8,6,82,140,0.32,0,95
